The supplement of paper PMC10307832

Legend:
Experiment in all cases: relative viability (nuclei count vs DMSO), 5 days (fraction); higher = more cells survive
AZD6482 + Phenformin = compound: Cc1cc([C@@H](C)Nc2ccccc2C(=O)O)c2nc(N3CCOCC3)cc(=O)n2c1 [AZD6482] + N=C(N)NC(=N)NCCc1ccccc1 [Phenformin] (partner 250 µM)
Outline: (§1)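 After 5 days of treatment, lung cancer cells in 1536-well plates were fixed and stained in a single step (final 0.05% Triton X-100, 1% formaldehyde, 1 ug/ml Hoechst) and their nuclei counted on 4× images. Treatment had been applied by pin tool the day after seeding as one drug alone or as a fixed anchor-drug dose with five library-drug doses (not always all listed) in √10 steps. Relative viability is the nuclei count of treated wells divided by that of vehicle wells, and values are medians of duplicate plates.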

AZD6482 + Tozasertib = compound: Cc1cc([C@@H](C)Nc2ccccc2C(=O)O)c2nc(N3CCOCC3)cc(=O)n2c1 [AZD6482] + Cc1cc(Nc2cc(N3CCN(C)CC3)nc(Sc3ccc(NC(=O)C4CC4)cc3)n2)n[nH]1 [Tozasertib] (partner 0.1 µM)
Outline: as §1

AZD6482 + Palbociclib = compound: Cc1cc([C@@H](C)Nc2ccccc2C(=O)O)c2nc(N3CCOCC3)cc(=O)n2c1 [AZD6482] + CC(=O)c1c(C)c2cnc(Nc3ccc(N4CCNCC4)cn3)nc2n(C2CCCC2)c1=O [Palbociclib] (partner 0.5 µM)
Outline: as §1

AZD6482 + Alpelisib = compound: Cc1cc([C@@H](C)Nc2ccccc2C(=O)O)c2nc(N3CCOCC3)cc(=O)n2c1 [AZD6482] + Cc1nc(NC(=O)N2CCC[C@H]2C(N)=O)sc1-c1ccnc(C(C)(C)C(F)(F)F)c1 [Alpelisib] (partner 2 µM)
Outline: as §1

Cell Line	relative viability (AZD6482 + Phenformin; first compound 0.08 µM)	relative viability (AZD6482 + Phenformin; first compound 0.253 µM)	relative viability (AZD6482 + Phenformin; first compound 0.8 µM)	relative viability (AZD6482 + Phenformin; first compound 8 µM)	relative viability (AZD6482 + Tozasertib; first compound 0.08 µM)	relative viability (AZD6482 + Tozasertib; first compound 0.253 µM)	relative viability (AZD6482 + Tozasertib; first compound 0.8 µM)	relative viability (AZD6482 + Tozasertib; first compound 8 µM)	relative viability (AZD6482 + Palbociclib; first compound 0.08 µM)	relative viability (AZD6482 + Palbociclib; first compound 0.253 µM)	relative viability (AZD6482 + Palbociclib; first compound 0.8 µM)	relative viability (AZD6482 + Palbociclib; first compound 2.53 µM)	relative viability (AZD6482 + Palbociclib; first compound 8 µM)	relative viability (AZD6482 + Alpelisib; first compound 0.08 µM)	relative viability (AZD6482 + Alpelisib; first compound 0.253 µM)	relative viability (AZD6482 + Alpelisib; first compound 0.8 µM)	relative viability (AZD6482 + Alpelisib; first compound 2.53 µM)	relative viability (AZD6482 + Alpelisib; first compound 8 µM)	relative viability (AZD6482 + Phenformin; first compound 2.53 µM)	relative viability (AZD6482 + Tozasertib; first compound 2.53 µM)
NCI-H3122	0.385	0.381	0.371	0.412	0.355	0.348	0.344	0.351	0.192	0.198	0.168	0.155	0.154	0.696	0.717	0.754	0.394	0.677		
PC-3 [JPC-3]	0.418	0.492	0.508	0.391	0.785	0.793	0.892	0.823	0.559	0.564	0.528	0.572	0.534	0.855	0.997	0.983	0.877	0.97	0.406	0.78
PC-14	0.488	0.438	0.59	0.534	0.556	0.61	0.619	0.524	0.447	0.524	0.578	0.503	0.519	0.857	0.882	0.832	0.663	0.807		0.613
RERF-LC-KJ	0.424	0.401	0.368	0.292	0.447	0.513	0.49	0.388	0.961	0.981	1.03	0.838	0.808	0.653	0.614	0.6	0.559	0.637	0.394	0.465
SK-LU-1		0.454	0.502	0.237		0.334	0.295	0.261		0.346	0.376	0.315	0.387		0.89	0.892	0.76	0.76	0.347	0.242
SK-MES-1	0.612	0.75	0.611	0.406	0.877	0.939	0.86	0.549	0.282	0.293	0.295	0.282	0.301	0.515	0.658	0.459	0.269	0.433	0.357	0.571
SW 1573	0.301	0.296	0.383	0.221	0.158	0.17	0.184	0.143	0.296	0.351	0.328	0.282	0.218	0.518	0.533	0.47	0.303	0.407	0.19	0.123
UMC-11	0.309	0.292	0.324	0.255	0.19	0.209	0.186	0.201	0.342	0.297	0.321		0.324	1.01	0.938	0.984	0.693	0.965	0.293	0.23
